In a melting point compilation (Tetko et al.; mined from patent text by program, amines drawn as free bases though some values may be those of a salt):

Row | melting point [°C] | SMILES
1 | 125 to 126 | COc1ccccc1Oc1cccc(CC(=O)O)c1O
2 | 160 to 162 | Cc1ccc2nc(-c3cccc(Cl)c3)oc(=O)c2c1
3 | 261 | CCC(=O)C1C(=O)CC(c2ccc(C3CC(=O)C(C(=O)CC)C(=O)C3)cc2)CC1=O (configuration not stated)
4 | 120 to 121 | Cc1sc(-c2ccccc2)nc1COc1ccc(C=O)cn1
5 | 212 to 213 | Nc1nc(Nc2ccccc2)sc1C=O
6 | 33 to 35 | CC(=O)C(C)(C(C)=O)C(C)=O
7 | 96 to 97 | COc1ccc(-c2nc(COc3ccc(CCCn4ccnc4)cc3)co2)s1
8 | 255 to 257 | CCN(CCCCN)c1ccc2c(=O)[nH][nH]c(=O)c2c1
9 | 134 to 137 | O=C(O)c1c[nH]c(Sc2cccc(Cl)c2)c1
10 | 122 to 123 | CCOc1ccc(OCc2ccc(OCc3nc(-c4ccccc4)oc3C)cc2)c(CC(=O)O)c1
11 | 345 to 347 | Cn1nc(-c2cnc3[nH]cc(C(=O)NC4CCOC4)c3n2)c2ccc(Cl)cc21 (configuration not stated)
12 | 132 to 133 | CCc1nc2c(n1C(CC)CC)C(=O)N(C)CN2c1ccc(Cl)cc1Cl
13 | 216 | CCC(=O)Oc1cccc2c(-c3ccccc3)c3cccc(OC(=O)CC)c3c(OC(=O)CC)c12
14 | 91.1 | CC#CCOc1ccc(SC(C(=O)NO)c2ccc(F)cc2)cc1 (configuration not stated)
15 | 85 to 87 | CCOC(=O)Cc1cc(Br)c(C(=O)c2ccc(C)cc2)n1C
16 | 79 | CN(C)Cc1ncccc1OC1SCC(O)C(O)C1O (configuration not stated)
17 | 107 to 109 | [N-]=[N+]=C1C(=O)c2ccccc2-c2ccccc21
18 | 112 to 114 | CCCCCCC(C(=O)O)n1cnc([N+](=O)[O-])c1 (configuration not stated)
19 | 196 to 198 | OCC1OC(n2c(SCc3ccccc3)nc3cc(Cl)c(Cl)cc32)C(O)C1O (configuration not stated)
20 | 190 to 192 | CCOC(=O)C=Cc1cnc(Nc2ccccc2)nc1N
21 | 132 to 133 | Cc1ccccc1Cc1cccc(-c2ncc3c(n2)CCOC3)n1
22 | 256 to 259 | CC(=O)Nc1c(-c2ccc(-c3ccccc3)cc2)nc2ccc(F)cc2c1C(=O)O
23 | 60 to 61.5 | CSc1ccc(C2=C(c3ccc(C(F)(F)F)cc3)CCC2)cc1
24 | 88 to 91 | Cc1cncn1Cc1ccc2ccc3c(c2c1)C(C)(C)C(=O)O3

Row | melting point [°C] | SMILES
25 | 143 to 150 | CC(C)Nc1nc(NN)nc(Cl)c1-c1c(F)cc(F)cc1F
26 | 116 to 118 | CCOC(=O)c1cnn2c1c(OCC)nc1c(C)nn(C)c12
27 | 150 to 152 | CCOCOC1=C(c2cc(C)ccc2C)C(=O)NC12CCN(OC)CC2
28 | 77 to 79 | c1ccc2c(c1)CSCCCN2
29 | 72 | CCc1ccc(N(C(=O)CCl)c2c(F)c(F)cc(F)c2F)cc1
30 | 118 to 121 | COc1ccc(Cl)cc1NC(=O)[C@H]1[C@H](c2ccc(S(N)(=O)=O)c(C)c2)C1(C)C (relative stereo)
31 | 136 | CCOC(=O)N1CCc2nc3c(C(F)(F)F)cccc3c(C)c2CC1
32 | 193 to 195 | N#Cc1ccc(NS(=O)(=O)c2ccc(Cl)cc2)c([N+](=O)[O-])c1
33 | 77 to 79 | COc1cc2c(cc1Nc1ncc(Cl)c(Nc3ccccc3S(=O)(=O)N(C)C)n1)CCN(CCOC(=O)CN)CC2
34 | 97 | C=CCNc1ccc([N+](=O)[O-])cc1C(=O)c1ccccc1
35 | 187 to 188 | COc1cccc2nc3c(c(N)c12)CCCC3
36 | 203 to 204 | NC(=O)C1CCc2c([nH]c3ccc(Cl)cc23)C1 (configuration not stated)
37 | 172 to 174 | CC[C@H](C)[C@H](NS(=O)(=O)c1cccc2ccccc12)C(=O)N[C@@H](Cc1c[nH]c2ccccc12)C(=O)OC
38 | 112 | Cc1ccc(C2CCCN2S(=O)(=O)c2ccc(F)cc2)cc1 (racemic)
39 | 96 | CCOC(=O)COc1cc(-c2ccccc2)nc2ccccc12
40 | 152 to 155 | CON(Cc1ccc(F)cc1Cl)C(=O)C1=C(O)C(=O)N(C)C1
41 | 94 to 96 | C=CCP(=O)(c1ccccc1)c1ccccc1
42 | 195 to 196 | COc1ccc2[nH]cc(C3=C(Cl)C(=O)C=C(Cl)C3=O)c2c1
43 | 178 to 180 | O=C(O)c1cccc(Oc2cccc(-c3nnc(N(Cc4ccc(C(F)(F)P(=O)(O)O)c(Cl)c4)c4ccc(Cl)c(Cl)c4)s3)c2)c1
44 | 172 to 174 | CC(C)(C)C(O)(COc1ccc(Cl)cc1)c1cncnc1 (configuration not stated)
45 | 332 to 335 | O=c1c2c([nH]c3nc(NCc4ccccc4)nn13)CCCS2
46 | 196 to 197 | Nc1ccc(C2CCN(c3ccncc3)CC2)cc1
47 | 80 to 81 | CN(Cc1cnn(C)c1)c1ccc(Br)cc1C=O
48 | 245 to 246 | CCCCCCCc1ccc(C(=O)Nc2ccc3oc(Nc4ccc(CC)cc4)nc3c2)cc1

Row | melting point [°C] | SMILES
49 | 165 to 167 | COc1nc(C)c(C)nc1NC(=O)N1CCN(c2ccccc2C(C)C)CC1
50 | 118 | CCCCCC1CCC2c3ccc(OCC)c(F)c3OC2C1 (configuration not stated)
51 | 200 to 202 | CNc1c(C#N)c(C(F)(F)F)nn1-c1c(Cl)cc(C(F)(F)F)cc1Cl
52 | 148 to 150 | CS(=O)(=O)NC(c1ccccc1)c1ccccc1
53 | 59 to 61 | O=C(c1ccccc1)c1ccc(CO)cc1
54 | 39 to 41 | COc1c(Br)c(C)nc(C)c1-c1ccc(Oc2ccc(OC(F)(F)F)cc2)cc1
55 | 85 to 85.5 | N#CC(=CN1CCOCC1)Cc1ccc2c(c1)OCO2
56 | 120 | COc1cc2c(cc1Nc1ncc(Cl)c(N[C@H]3[C@@H](C(N)=O)[C@@H]4C=C[C@H]3C4)n1)CCN(CC(C)O)CC2 (some centres not stated)
57 | 163 to 166 | COC(=O)c1ccccc1Oc1ccc(S(=O)(=O)NCc2ccnc3ccccc23)cc1
58 | 216 to 218 | Cc1nc2c(O)c(CCC(O)c3ccccc3)c(C(=O)N(C)C)cc2n1C (configuration not stated)
59 | 199 to 200 | O=C1OCCC12Oc1ccc([N+](=O)[O-])cc1C2=O (configuration not stated)
60 | 138 to 140 | CCC(O)c1ccc(Cl)c2nc3n(c12)CCCN3c1c(Br)cc(OC)cc1Br (configuration not stated)
61 | 183 to 185 | O=c1oc2c(c(O)c1C(c1ccccc1)C1CC1)CCC2 (configuration not stated)
62 | 73.5 | CN(C)CC(=O)N1CCN2C(=O)N(c3cc(Cl)cc(Cl)c3)C(=O)C2(Cc2ccc(Br)cc2)C1 (configuration not stated)
63 | 123 to 124 | CCOC(=O)c1cn2c(-c3ccccc3)cccc2n1
64 | 99 to 101 | OC(CCN1CCC(c2ccccc2)CC1)c1ccc(-c2ccccc2)cc1 (configuration not stated)
65 | 122 to 123 | O=C1c2ccc(F)cc2C(=O)N1c1ccc(Cl)cc1F
66 | 152 to 153 | O=S(=O)(CCl)c1c(Cl)nc(Cl)nc1Cl
67 | 91 to 92 | CC(C)(C)OC(=O)ON=C(C#N)c1ccc(Cl)cc1
68 | 202 to 204 | COc1ccc2c(c1)C(C)(Cl)C(=S)N2 (configuration not stated)
69 | 62 to 68 | O=c1c2c(N3CCNCC3)cc(Cl)cc2n(Cc2ccccc2)c(=O)n1CCCc1ccccc1
70 | 73 to 76 | O=S(=O)(c1cc(Br)[nH]c1-c1ccc(Cl)cc1)C(F)(F)F
71 | 263 | CCOC(=O)[C@@H]1C[C@H]2C[C@H](COCC#N)CC[C@H]2CN1C(=O)OC (racemic)
72 | 169 to 171 | NC(=O)c1c(C(F)(F)F)nn(-c2c(Cl)cc(C(F)(F)F)cc2Cl)c1N

Row | melting point [°C] | SMILES
73 | 168 to 170 | CC(=O)[C@H]1C[C@@H](C(N)=S)N(C(=O)OCc2ccc([N+](=O)[O-])cc2)C1
74 | 192 | CCOC(=O)c1c(C(F)(F)F)nc2ccccc2c1O
75 | 173 | N#CCN1C(=O)COc2ccc([N+](=O)[O-])cc21
76 | 249 to 251 | CCc1nn(C2CCCC2)c2cc(C(=O)Nc3ccc(C(=O)O)cc3)ccc12
77 | 66 to 67.5 | Nc1cccc(S(=O)(=O)C(F)(F)C(F)Cl)c1 (configuration not stated)
78 | 258 to 259 | Cc1cc2c(C(=O)C3=C(O)C4CCC(C4)C3=O)ccc(S(C)(=O)=O)c2o1 (configuration not stated)
79 | 88 to 90 | CC(C)(C1CC1)C(O)(Cn1cncn1)c1ccc(Cl)cc1 (configuration not stated)
80 | 136 to 138 | COc1ccc(N2N=C3c4cc(C)sc4CCCC3CC2=O)cc1 (configuration not stated)
81 | 136 to 141 | COc1cc2c(cc1Nc1ncc3ccc(-c4ccccc4OC)n3n1)CN(C)C2
82 | 180 | CCCCCCCCc1cc2c(cc1/C=C/c1ccc(C(=O)O)cc1)CCC(C)(C)CC2
83 | 222 to 224 | N#Cc1cnn2c(-c3cccc(F)c3)ccnc12
84 | 201 to 205 | O=C1CC(c2cccc(-n3ccnc3)c2)=Nc2ccc(-c3ccccc3)cc2N1
85 | 195 to 197 | CN(C)C=Nc1ncc(C#Cc2ccc(Cl)cc2)c(Cl)n1
86 | 116 to 117 | COC(=O)[C@H](Cc1cc(C)c(OCc2cccc3nc(-c4ccccc4)oc23)c(C)c1)NC(=O)OC(C)(C)C
87 | 181 to 183 | CNC(=S)N1CC(c2ccccc2)C(c2ccc(Cl)cc2)=N1 (configuration not stated)
88 | 241 | O=C(Nc1ccc(-c2nn(C(=O)c3ccccc3)c3c2Cc2ccccc2-3)cc1)c1ccccc1
89 | 103 to 104 | CC(C)(Cn1cncn1)C(=O)C=Cc1ccc2ccccc2c1
90 | 157 to 159 | CC(CCC(=O)O)C1CCC2C3C(=O)CC4CC(OC5CCCCO5)CCC4(C)C3CCC12C (configuration not stated)
91 | 161 to 171 | Cc1ccc(-c2nnnn2C)c(S(N)(=O)=O)c1
92 | 43 to 44 | Cc1cncc(/C=C/c2cccc(F)c2)n1
93 | 206 to 210 | O=C1COC2(CCN(CC(=O)c3ccc(F)cc3)CC2)CN1
94 | 176 to 177 | O=C(NC(=O)c1c(F)cccc1Cl)Nc1ccc(S(=O)(=O)C(F)(F)C(F)F)cc1F
95 | 129 to 132 | CON=Cc1cc([N+](=O)[O-])c(Cl)cc1Cl
96 | < 35 | CN(C)CCN(C(=O)OC(C)(C)C)C1=NCC(=O)N(C)c2ccccc21

Row | SMILES | melting point [°C]
97 | C[C@H]1[C@@H](CO)CCN1c1ccc(C#N)c2sccc12 | 109 to 111
98 | O=[N+]([O-])C=Cc1cc(Br)ccc1O | 165 to 167
99 | CCCCCCc1cc2c(s1)-n1c(C)nnc1CN=C2c1cccc(C)c1C | 103 to 105
100 | CC(=O)N1N=C(c2ccc([N+](=O)[O-])cc2)c2cc(Br)ccc2CC1C (configuration not stated) | 228 to 230
101 | Nc1c(C(=O)c2cccc(Cl)c2)cc(Br)cc1[N+](=O)[O-] | 134
102 | CN1CC=C(c2c[nH]c3ccc([N+](=O)[O-])cc23)C(F)C1 (configuration not stated) | 94 to 96
